Data as given in PubChem BioAssay (NCI).
Several values for one entry are separate records, joined by “and”; a condition that tells them apart may be missing. Equal values may be shown once.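 A five-concentration, 48-hour dose response in 96-well plates underlies each endpoint, interpolated linearly between surrounding concentrations. GI50 = concentration required for 50% inhibition of growth. The concentration for full growth arrest is given as TGI.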

How the values were obtained:
Assay in all cases: DTP human tumour cell line panel, 48 h
[1] = test system: HOP-18 NSCLC
[2] = test system: DMS 114 small cell lung
[3] = test system: NCI-H23 lung
[4] = test system: LXFL 529 NSCLC
[5] = test system: LOX IMVI melanoma
[6] = test system: UO-31 renal
[7] = test system: TK-10 renal
[8] = test system: SF-539 CNS
[9] = test system: CCRF-CEM leukemia
[10] = test system: SW-620 colon
[11] = test system: M14 melanoma

Compound	TGI [1]	TGI [2]	TGI [3]	TGI [4]	TGI [5]	TGI [6]	TGI [7]	TGI [8]	TGI [9]	TGI [10]	TGI [11]	GI50 [1]	GI50 [3]	GI50 [6]	GI50 [7]	GI50 [11]
CC(C)N(C(=O)C12C3C4C5(C#N)C3C1(C#N)C5C42C#N)C(C)C (configuration not stated)	> 100 µM	> 100 µM	> 100 µM	> 100 µM	> 100 µM	> 100 µM	> 100 µM	> 100 µM	> 100 µM	> 100 µM	–	–	–	–	–	–
C=C(CCCCC)CN1CCCC1C(C)=O (configuration not stated)	> 94.8 µM	42.8 µM	65.1 µM	> 100 µM	65.3 µM	> 100 µM	> 100 µM	> 100 µM	41.2 µM	> 100 µM	> 100 µM	–	–	–	–	–
O=C1[C@H]2ON(c3ccccc3)C(c3ccc([N+](=O)[O-])cc3)[C@H]2C(=O)N1c1ccc(Cc2ccc(N3C(=O)[C@@H]4ON(c5ccccc5)C(c5ccc([N+](=O)[O-])cc5)[C@@H]4C3=O)cc2)cc1 (some centres not stated)	> 100 µM	> 100 µM	> 100 µM	> 100 µM	> 100 µM	> 100 µM	> 100 µM	> 100 µM	> 100 µM	> 100 µM	38.9 µM	–	–	–	–	–
NNC(=O)C(=O)N/N=C(\CCCC(=O)Nc1ccc(Cl)cc1)CC(=O)c1ccc(F)cc1	> 100 µM	> 100 µM	> 100 µM	> 100 µM	> 100 µM	> 100 µM	> 100 µM	–	> 100 µM	> 100 µM	> 100 µM	–	–	–	–	–
CSc1ccc2c(cc1=O)[C@@H](NC(=O)c1cccc([N+](=O)[O-])c1)CCc1cc(O)c(O)c(O)c1-2	> 100 µM	60 µM	> 100 µM	> 100 µM	32.2 µM	> 100 µM	> 100 µM	62.9 µM	> 100 µM	61.1 µM	> 100 µM	–	–	–	–	–
CCOC(OC(C)=O)[C@@H]1C=C[C@H](C)N(c2ccc([N+](=O)[O-])cc2)O1 (some centres not stated)	17.8 µM	16.9 µM	16.2 µM	10.8 µM	4.12 µM	9.16 µM	14 µM	8.44 µM	> 21.8 µM	9.2 µM	9.44 µM	–	–	–	–	–
C=CCNC(=O)NCCCCC(NC(C)=O)C(=O)NCc1ccccc1 (configuration not stated)	> 100 µM	> 100 µM	> 100 µM	> 100 µM	> 100 µM	> 100 µM	> 100 µM	> 100 µM	> 100 µM	> 100 µM	> 100 µM	–	–	–	–	–
C=C(C)[C@H]1CC[C@@]2(C)C(C1)[C@H](C)CC[C@@H]2O (some centres not stated)	> 100 µM	> 100 µM	> 100 µM	> 100 µM	> 100 µM	> 100 µM	> 100 µM	> 100 µM	> 100 µM	> 100 µM	> 100 µM	–	–	–	–	–
CC1=N/C(=C/c2ccc3c(c2)OCO3)C(=O)O1	> 100 µM	> 100 µM	> 100 µM	> 100 µM	> 100 µM	> 100 µM	> 100 µM	> 100 µM	> 100 µM	> 100 µM	> 100 µM	–	–	–	–	–
COC(COC(N)=O)C1=C(N2CC2)C(=O)C(C)=C(N2CC2)C1=O (configuration not stated)	0.902 µM	0.38 µM	0.0907 µM	0.672 µM	0.326 µM	0.0796 µM	2.64 µM	0.202 µM	24.6 µM	0.703 µM	0.147 µM	–	–	–	–	–
Cc1ccc(C)c(N2C(=O)C(=O)C(c3nc4ccccc4s3)/C(=N/N)C2=O)c1 (configuration not stated)	> 100 µM	> 100 µM	> 100 µM	> 100 µM	> 100 µM	> 100 µM	> 100 µM	> 100 µM	> 100 µM	> 100 µM	> 100 µM	–	–	–	–	–
COC(=O)[C@@H]1c2cc3c(c(O)c2[C@@H](OC2OC(C)C(OC)C(C)(OC)C2OC)C[C@]1(C)O)C(=O)c1c(O)cc2c(c1C3=O)O[C@H]1O[C@]2(C)[C@H](O)[C@@H](N(C)C)[C@@H]1O (some centres not stated)	–	0.00521 µM	0.0399 µM and 0.0694 µM	1.28 µM	0.152 µM and 1.22 µM	0.983 µM and 1.17 µM	–	0.16 µM and 0.0302 µM	0.198 µM and 0.258 µM	0.292 µM and 1.37 µM	0.14 µM and 0.107 µM	0.0404 µM	0.0141 µM	0.21 µM	0.0386 µM	0.0194 µM
NC(=O)NNC(=O)CCn1[nH]c(=O)c(Cl)c(Cl)c1=O	> 100 µM	> 100 µM	> 100 µM	> 100 µM	> 100 µM	> 100 µM	> 100 µM	–	> 100 µM	> 100 µM	> 100 µM	–	–	–	–	–
CC1(C)OC2C(CCP(=O)(O)O)OC(c3nc(C(N)=O)cs3)C2O1 (configuration not stated)	> 100 µM	> 100 µM	> 100 µM	> 100 µM	> 100 µM	> 100 µM	> 100 µM	–	> 100 µM	> 100 µM	> 100 µM	–	–	–	–	–
C=CSCCC(N)C(=O)O (configuration not stated)	> 100 µM	> 100 µM	> 100 µM	> 100 µM	> 100 µM	> 100 µM	> 100 µM	> 100 µM	> 100 µM	> 100 µM	> 100 µM	–	–	–	–	–
O=C(/C=C\c1ccccc1O)c1ccc(O)cc1O	> 100 µM	> 100 µM	> 100 µM	> 100 µM	> 100 µM	> 100 µM	> 100 µM	> 100 µM	> 100 µM	22.7 µM	> 100 µM	–	–	–	–	–
C=C[C@@H](C)[C@]1(C(=O)OC)CCCC12OCCO2	> 100 µM	> 100 µM	–	> 100 µM	> 100 µM	> 100 µM	> 100 µM	> 100 µM	> 100 µM	–	> 100 µM	–	–	–	–	–
CC(C)(C)C1=CC(=C(P(=O)(O)O)P(=O)(O)O)C=C(C(C)(C)C)C1=O	> 50 µM	> 50 µM	> 50 µM	> 50 µM	> 50 µM	> 50 µM	> 50 µM	> 50 µM	> 50 µM	> 50 µM	> 50 µM	–	–	–	–	–
CN(CCS(=O)(=O)N1C(=O)C2CCCN2C(=O)[C@@H]1Cc1ccccc1)C(=O)OCc1ccccc1 (some centres not stated)	> 100 µM	> 100 µM	> 100 µM	> 100 µM	> 100 µM	> 100 µM	> 100 µM	> 100 µM	> 100 µM	> 100 µM	> 100 µM	–	–	–	–	–
O=C(CCC(=O)Nc1ccc(Cl)c(Cl)c1)Cc1nc2ccccc2o1	> 100 µM	> 100 µM	> 100 µM	> 100 µM	> 100 µM	> 100 µM	> 100 µM	> 100 µM	> 100 µM	> 100 µM	> 100 µM	–	–	–	–	–
